Results taken from patent publication EP0801071A1, “LEWIS X DERIVATIVE AND PROCESS FOR PRODUCING THE SAME” (SUMITOMO PHARMACEUTICALS COMPANY, LIMITED, priority 1994, dated 1996).
pIC50: −log10 of the molar value.

Legend:
rsE-selectin = target: T1, rsE-selectin (Homo sapiens, UniProt P16581); test: Inhibition of adhesion of HL-60 cells to plate-coated rsE-selectin (Experiment 2); assay type: cell-based; conditions: 50% inhibition concentration of adhesion of rsE-selectin to HL-60, from inhibition curves; medium-only well = 100%
T1 sequence (P16581 22-556 limits assumed): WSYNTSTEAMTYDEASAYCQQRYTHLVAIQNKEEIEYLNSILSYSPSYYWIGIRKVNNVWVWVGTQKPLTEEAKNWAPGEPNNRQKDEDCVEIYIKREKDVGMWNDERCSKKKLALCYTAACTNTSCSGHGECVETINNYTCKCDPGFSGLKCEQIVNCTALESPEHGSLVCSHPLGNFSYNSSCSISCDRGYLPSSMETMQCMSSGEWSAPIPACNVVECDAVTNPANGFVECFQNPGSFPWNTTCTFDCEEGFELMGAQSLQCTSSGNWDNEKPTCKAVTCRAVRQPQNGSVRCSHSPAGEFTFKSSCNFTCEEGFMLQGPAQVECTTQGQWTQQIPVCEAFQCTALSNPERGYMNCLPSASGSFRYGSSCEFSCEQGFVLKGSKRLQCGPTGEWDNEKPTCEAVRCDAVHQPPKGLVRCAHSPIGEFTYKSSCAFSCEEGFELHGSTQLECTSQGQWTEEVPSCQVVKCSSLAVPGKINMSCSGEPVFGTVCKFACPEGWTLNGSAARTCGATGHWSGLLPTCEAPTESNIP
Experimental: The DPBS solution containing rsE-selectin (3 µg/ml) was added to a 96 well plate at 50 µl/well, while wells filled with DPBS without rsE-selectin (non-specific adhesion control) were prepared on the same plate, and the plate was kept at room temperature for 3 hours. Then wells were washed 3 times with a DPBS/BSA solution at 200 µl/well, and DPBS/BSA solution was added at 200 µl/well, and the plate was kept at room temperature for 1 hour. After removing DPBS/BSA solution, a medium containing NWB or NWB plus a compound of the invention was added at 40 µl/well.
Frozen HL-60 cells were thawed promptly at 37°C, and washed with NWB cooled to 4°C 3 times by centrifugation at 1500rpm × 5 min. The cells were adjusted with NWB to 1×10^7 cells/ml, added to the plate at 20 µl/well, and the plate was kept at room temperature for 15 min.
The plate was set on a plate washer to remove nonadhesive HL-60 cells. The plate washer was set at slow mode, cycle 3 (washing 3 times), soak 0 sec., 12 rows (along vertical direction), and volume of NWB for 1 washing 200 µl/well at room temperature.
A citrate solution containing 0.1% NP-40 at room temperature was added at 50 µl/well, and the plate was kept at room temperature for 5 minutes. The substrate solution (4 mg OPDA, 4µl 30% H2O2/4 ml citrate) was added at 50 µl/well, protected from light with aluminum foil, allowed to develop color for 5 to 20 minutes, and the reaction was terminated by adding 4N-H2SO4 at 50µl/well. The substrate solution was used within 30 minutes after preparation.
The OD490 of each well was determined, and the OD490 value of the well for nonspecific adhesion was subtracted from the value of each well. The value found in a well containing only the medium was used as a control (100%) and the amount of adhesion in wells containing Compounds (15), (31), (33)-(40) or (41) of the invention was calculated by percent in terms of the values of the control. By drawing inhibition curves, 50% inhibition concentration (IC50) was determined.
The materials for the experiment were obtained from the following sources. rsE-selectin: producible by the method described in J. C. Poulson, J. Am. Chem. Soc., 117: 66-79 (1995). The sample of rsE-selectin used in the experiments was kindly supplied by the author. HL-60 : ATCC Corp. DPBS (Dulbecco Phosphate Buffered Saline) : GIBCO Corp. BSA (Bovine Serum Albumin) : Sigma Corp. HBSS (Hanks Balanced Salt Solution) : GIBCO Corp. OPDA (Ortho-phenylenediamine) : Sigma Corp. RPMI 1640 medium : GIBCO Corp. Bovine Fetal Serum : GIBCO Corp. Plate : Immulon. 2. (flat bottomed) : Dynatech Laboratories. Plate washer; Microplate Washer : Molecular Devices Corp.
A compound of the present invention was adjusted to 100mM with DPBS, and pH was adjusted to 7.1-7.4.
HL-60 was cultured in RPMI 1640 medium supplemented with 10% Bovine Fetal Serum. Using a cell freezing solution consisting of 80% RPMI 1640 medium + 10% Bovine Fetal Serum + 10% DMSO, HL-60 was frozen at 1.5 × 10^7 cells per a tube according to a conventional method, and stocked at -80°C. This was used under sterile condition.
Composition of DPBS/BSA was DPBS + 1% BSA.
Composition of NWB was HBSS + 10mM-HEPES + 0.2%glucose + 1%BSA+ 1mM-CaCl2. These two solutions are prepared under sterile condition.
The citrate solution was prepared by dissolving 2.33 g of citric acid and 9.20 g of Na2HPO4·12H2O in 500 ml of desalted water.

[1] = test system: adhesion of HUVEC to neutrophils; test: Inhibition of adhesion of neutrophils (treated with anti-CD18 antibody) to IL-1β-stimulated HUVEC (Experiment 1); assay type: cell-based, human; conditions: at a concentration of 0.05-0.5mM; wells without compound = 100%
Experimental: To each well of a 96 well plate was added a PBS solution containing 0.1% gelatine at 50 µl/well, and after 15 minutes at room temperature, the solution was removed with a Pasteur pipette. On the coated 96 well plate, human umbilical vein endothelial cells (HUVEC, 5th generation) were cultured until confluent. The culture medium was removed with a Pasteur pipette and the MEM medium containing 45 U/ml of IL-1β was added at 100 µl/well, and incubated for 4 hours. On the same plate, wells containing the MEM medium without IL-1β were prepared and similarly incubated for 4 hours.
Blood was collected from a healthy human using heparin as an anticoagulant. In a 50 ml-tube was placed 15 ml of neutrophil·monocyte fraction, and 25 ml of whole blood was gently layered. The brake function was released and centrifuged at 1700 rpm for 30 minutes at room temperature, and the neutrophil layer was collected and transferred into a 50 ml tube containing 30 ml of HBSS solution. The brake function was recovered and centrifuged at 3000 rpm for 3 minutes at room temperature, the supernatant was removed, and 30 ml of HBSS was added for resuspension. This procedure was repeated twice. The neutrophils were counted using hemocytometer, adjusted to 5×10^6 cells/ml with the HBSS solution, charged in a 15 ml tube, mixed with anti-CD18 antibody at final concentration of 10 µg/ml, and incubated for 1 hour with occasional gentle swirling.
MEM medium was removed from the HUVEC plate with a Pasteur pipette, a compound of the present invention diluted with MEM medium at 50 µl/well was added, and incubated for 20 minutes.
The neutrophils treated with anti-CD18 antibody were added to the HUVEC plate at 25 µl/well, and incubated for 5 minutes. […]
The OD490 of each well was determined, and the OD490 value of wells containing MEM medium without IL-1β was subtracted from that of each well. The value found in wells containing none of the compounds of the present invention was set to be 100% and the […] of the compound of the invention was assessed as shown in Figure 1. […]

Row | Structure (SMILES) | pIC50 (rsE-selectin) | inhibited the adhesion of HUVEC to neutrophils [1] [%]
1 | COc1cc(CO[C@@H]2O[C@H](CO)[C@@H](O[C@@H]3O[C@H](CO)[C@H](O)[C@H](O[C@]4(C(=O)O)C[C@H](O)[C@@H](NC(C)=O)[C@H]([C@H](O)[C@H](O)CO)O4)[C@H]3O)[C@H](O[C@@H]3O[C@@H](C)[C@@H](O)[C@@H](O)[C@@H]3O)[C@H]2NC(=O)c2ccc3ccccc3c2)cc(OC)c1OC [Compound 15, 3,4,5-trimethoxybenzyl (5-acetamido-3,5-dideoxy-α-D-glycero-D-galacto-2-nonulopyra nosylonic acid)-(2→3)-O-(β-D-galacto-pyranosyl)-(1→4)-O-[α-L-fucopyranosyl-(1→3)-O]-(2-deoxy-2-naphthamido-β-D-glucopyranoside)] | 3.96 | ≥ 50
2 | CC(=O)N[C@H]1[C@H]([C@H](O)[C@H](O)CO)O[C@@](O[C@H]2[C@@H](O)[C@@H](CO)O[C@@H](O[C@H]3[C@H](O[C@@H]4O[C@@H](C)[C@@H](O)[C@@H](O)[C@@H]4O)[C@@H](NC(=O)c4ccc5ccccc5c4)[C@H](OCCCCCCCCCO)O[C@@H]3CO)[C@@H]2O)(C(=O)O)C[C@@H]1O [Compound 35, 9-Hydroxynonyl (5-acetamido-3,5-dideoxy-α-D-glycero-D-galacto-2-nonulopyranosylonic acid)-(2→3)-O-(β-D-galactopyranosyl)-(1→4)-O-[α-L-fucopyranosyl-(1→3)-O ]-(2-deoxy-2-naphthamido-β-D-glucopyranoside)] | 4.30 | ≥ 50
3 | CCOCCOCCO[C@@H]1O[C@H](CO)[C@@H](O[C@@H]2O[C@H](CO)[C@H](O)[C@H](O[C@]3(C(=O)O)C[C@H](O)[C@@H](NC(C)=O)[C@H]([C@H](O)[C@H](O)CO)O3)[C@H]2O)[C@H](O[C@@H]2O[C@@H](C)[C@@H](O)[C@@H](O)[C@@H]2O)[C@H]1NC(=O)c1ccc2ccccc2c1 [Compound 31, 2-(2-Ethoxyethoxy)ethyl (5-acetamido-3,5-dideoxy-α-D-glycero-D-galacto-2-nonulopyranosylonic acid)-(2→3)-O-(β-D-galactopyranosyl)-(1→4)-O-[α-L-fucopyranosyl-(1→3)-O]-(2-deoxy-2-naphthamido-β-D-glucopyranoside)] | 3.96 | ≥ 50
